Test results taken from patent US10874743B2, “IRAK degraders and uses thereof” (Kymera Therapeutics, Inc., priority 2017, dated 2020).

Molecular target: T1, IRAK4 (Homo sapiens, UniProt Q9NWZ3)
T1 sequence (Q9NWZ3 1-460): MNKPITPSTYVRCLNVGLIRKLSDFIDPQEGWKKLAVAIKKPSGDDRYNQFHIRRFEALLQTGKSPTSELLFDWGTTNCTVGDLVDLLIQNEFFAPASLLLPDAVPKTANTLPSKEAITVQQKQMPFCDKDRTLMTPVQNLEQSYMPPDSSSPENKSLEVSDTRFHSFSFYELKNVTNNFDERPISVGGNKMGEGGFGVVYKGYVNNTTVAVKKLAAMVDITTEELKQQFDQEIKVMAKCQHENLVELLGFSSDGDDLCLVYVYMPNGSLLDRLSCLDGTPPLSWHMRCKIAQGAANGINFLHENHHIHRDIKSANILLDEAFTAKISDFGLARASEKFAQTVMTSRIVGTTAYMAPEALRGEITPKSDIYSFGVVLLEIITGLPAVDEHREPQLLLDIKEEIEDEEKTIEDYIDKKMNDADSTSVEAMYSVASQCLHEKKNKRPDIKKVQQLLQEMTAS
Experiment: OCI-LY-10 degradation assay (western blot, % IRAK4 degraded after 4 hours)
Assay type: cell-based
Set-up: endogenous in cells; host or cells: OCI-LY10
Settings: OCI-LY10 cells, 4 hours; for OCI-LY10 % IRAK4 Degradation (0.01 uM): 0.01 uM compound; for OCI-LY10 % IRAK4 Degradation (0.1 uM): 0.1 uM compound; for OCI-LY10 % IRAK4 Degradation (1 uM): 1 uM compound
Outline: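 OCI-LY10 cells (RPMI-1640, 20% FBS, 55 μM 2-ME) treated with compound at 0.003-10 μM final for 4 h at 37° C, then lysed in RIPA buffer. IRAK4 level read by fluorescent western blot (20-25 μg protein) and binned as % degraded: A >50%, B >20-50%, C <20%.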

Row | SMILES | OCI-LY10 % IRAK4 Degradation (0.01 uM) | OCI-LY10 % IRAK4 Degradation (0.1 uM) | OCI-LY10 % IRAK4 Degradation (1 uM)
1 | O=C1CCC(N2C(=O)c3ccc(CCCCCN4CCC(n5cc(NC(=O)c6coc(-c7ccnc(NCC8CC8)c7)n6)c(C(F)F)n5)CC4)cc3C2=O)C(=O)N1 (stereo not drawn) [I-263] | C (<20% degradation) | C (<20% degradation) | C (<20% degradation)
2 | O=C1CCC(N2C(=O)c3ccc(CCCN4CCC(n5cc(NC(=O)c6coc(-c7ccnc(NCC8CC8)c7)n6)c(C(F)F)n5)CC4)cc3C2=O)C(=O)N1 (stereo not drawn) [I-264] | C (<20% degradation) | C (<20% degradation) | C (<20% degradation)
3 | O=C1CCC(N2C(=O)c3cccc(N4CCN(CCOCCOCCOCCNC(=O)c5ccc(-n6cc(NC(=O)c7coc(-c8ccnc(NCC9CC9)c8)n7)c(C(F)F)n6)cc5)CC4)c3C2=O)C(=O)N1 (stereo not drawn) [I-275] | C (<20% degradation) | B (>20-50% degradation) | A (>50% degradation)
4 | O=C1CCC(N2C(=O)c3cccc(NCCOCCN4CCO[C@@H](CNC(=O)c5ccc(-n6cc(NC(=O)c7coc(-c8ccnc(NCC(F)(F)F)c8)n7)c(C(F)F)n6)cc5)C4)c3C2=O)C(=O)N1 (stereo partly drawn) [I-282] | C (<20% degradation) | C (<20% degradation) | C (<20% degradation)
5 | CC(=O)O[C@@H]1C[C@@H](C(=O)NCc2ccc(-n3cc(NC(=O)c4coc(-c5ccnc(NCC6CC6)c5)n4)c(C(F)F)n3)cc2)N(C(=O)[C@@H](NC(=O)COCCOCCOCCNc2cccc3c2C(=O)N(C2CCC(=O)NC2=O)C3=O)C(C)(C)C)C1 (stereo partly drawn) [I-285] | C (<20% degradation) | C (<20% degradation) | B (>20-50% degradation)
6 | NC(=O)c1nn(-c2ccc(COCC3CCCCN3CCOCCNc3cccc4c3C(=O)N(C3CCC(=O)NC3=O)C4=O)cc2)cc1NC(=O)c1coc(-c2ccnc(NCC(F)(F)F)c2)n1 (stereo not drawn) [I-303, N-[3-carbamoyl-1-[4-[[1-[2-[2-[[2-(2,6-dioxo-3-piperidyl)-1,3-dioxo-isoindolin-4-yl]amino]ethoxy]ethyl]-2-piperidyl]methoxymethyl]phenyl]pyrazol-4-yl]-2-[2-(2,2,2-trifluoroethylamino)-4-pyridyl]oxazole-4-carboxamide] | B (>20-50% degradation) | A (>50% degradation) | A (>50% degradation)
7 | NC(=O)c1nn(Cc2cn(CCOCCOCCNc3cccc4c3C(=O)N(C3CCC(=O)NC3=O)C4=O)nn2)cc1NC(=O)c1coc(-c2ccnc(NCC3CC3)c2)n1 (stereo not drawn) [I-304, N-[3-carbamoyl-1-[[1-[2-[2-[2-[[2-(2,6-dioxo-3-piperidyl)-1,3-dioxo-isoindolin-4-yl]amino]ethoxy]ethoxy]ethyl]triazol-4-yl]methyl]pyrazol-4-yl]-2-[2-(cyclopropylmethylamino)-4-pyridyl]oxazole-4-carboxamide] | C (<20% degradation) | C (<20% degradation) | C (<20% degradation)
8 | NC(=O)c1nn(-c2ccc(CNCC3CCCCN3CCOCCNc3cccc4c3C(=O)N(C3CCC(=O)NC3=O)C4=O)cc2)cc1NC(=O)c1coc(-c2ccnc(NCC(F)(F)F)c2)n1 (stereo not drawn) [I-306] | C (<20% degradation) | B (>20-50% degradation) | B (>20-50% degradation)
9 | O=C1CCC(N2C(=O)c3cccc(NCCNCCOCCNCc4ccc(-n5cc(NC(=O)c6coc(-c7ccnc(NCC8CC8)c7)n6)c(C(F)(F)F)n5)cc4)c3C2=O)C(=O)N1 (stereo not drawn) [I-307] | C (<20% degradation) | C (<20% degradation) | C (<20% degradation)
10 | CN(CCOCCOCCCc1ccc2c(c1)C(=O)N(C1CCC(=O)NC1=O)C2=O)Cc1ccc(-n2cc(NC(=O)c3coc(-c4ccncc4)n3)c(C(N)=O)n2)cc1 (stereo not drawn) [I-309] | B (>20-50% degradation) | A (>50% degradation) | A (>50% degradation)
11 | CN(CCOCCOCCCc1ccc2c(c1)C(=O)N(C1CCC(=O)NC1=O)C2=O)Cc1ccc(-n2cc(NC(=O)c3coc(-c4ccnc(NCC5CC5)c4)n3)c(C(F)F)n2)cc1 (stereo not drawn) [I-310] | C (<20% degradation) | A (>50% degradation) | A (>50% degradation)
12 | NC(=O)c1nn(-c2ccc(CNCCCCCOCCCc3cccc4c3C(=O)N(C3CCC(=O)NC3=O)C4=O)cc2)cc1NC(=O)c1coc(-c2ccnc(NCC3CC3)c2)n1 (stereo not drawn) [I-311] | C (<20% degradation) | A (>50% degradation) | A (>50% degradation)
13 | CN(CCCCCOCCCc1cccc2c1C(=O)N(C1CCC(=O)NC1=O)C2=O)Cc1ccc(-n2cc(NC(=O)c3coc(-c4ccnc(NCC5CC5)c4)n3)c(C(N)=O)n2)cc1 (stereo not drawn) [I-312] | C (<20% degradation) | A (>50% degradation) | A (>50% degradation)
14 | CN(CCCCCCc1cccc2c1C(=O)N(C1CCC(=O)NC1=O)C2=O)Cc1ccc(-n2cc(NC(=O)c3coc(-c4ccnc(NCC5CC5)c4)n3)c(C(N)=O)n2)cc1 (stereo not drawn) [I-314] | C (<20% degradation) | B (>20-50% degradation) | B (>20-50% degradation)
15 | CN(CCCCCNCCCc1cccc2c1C(=O)N(C1CCC(=O)NC1=O)C2=O)C(=O)c1ccc(-n2cc(NC(=O)c3coc(-c4ccnc(NCC5CC5)c4)n3)c(C(N)=O)n2)cc1 (stereo not drawn) [I-315] | C (<20% degradation) | C (<20% degradation) | B (>20-50% degradation)
16 | CN(CCCCCCCCCc1cccc2c1C(=O)N(C1CCC(=O)NC1=O)C2=O)Cc1ccc(-n2cc(NC(=O)c3coc(-c4ccnc(NCC5CC5)c4)n3)c(C(N)=O)n2)cc1 (stereo not drawn) [I-316] | B (>20-50% degradation) | B (>20-50% degradation) | B (>20-50% degradation)
17 | NC(=O)c1nn(-c2ccc(CNCCCCCCCCCc3cccc4c3C(=O)N(C3CCC(=O)NC3=O)C4=O)cc2)cc1NC(=O)c1coc(-c2ccnc(NCC3CC3)c2)n1 (stereo not drawn) [I-317] | C (<20% degradation) | C (<20% degradation) | B (>20-50% degradation)
18 | NC(=O)c1nn(-c2ccc(CNCCOCCCc3cccc4c3CN(C3CCC(=O)NC3=O)C4=O)cc2)cc1NC(=O)c1coc(-c2ccnc(NCC(F)(F)F)c2)n1 (stereo not drawn) [I-318] | C (<20% degradation) | A (>50% degradation) | B (>20-50% degradation)
19 | NC(=O)c1nn(-c2ccc(CNCCOCCOCCOCCOCCCc3cccc4c3C(=O)N(C3CCC(=O)NC3=O)C4=O)cc2)cc1NC(=O)c1coc(-c2ccnc(NCC(F)(F)F)c2)n1 (stereo not drawn) [I-322] | C (<20% degradation) | C (<20% degradation) | A (>50% degradation)
20 | NC(=O)c1nn(-c2ccc(CNCCOCCOCCOCCOCC#Cc3cccc4c3C(=O)N(C3CCC(=O)NC3=O)C4=O)cc2)cc1NC(=O)c1coc(-c2ccnc(NCC(F)(F)F)c2)n1 (stereo not drawn) [I-323] | B (>20-50% degradation) | A (>50% degradation) | A (>50% degradation)
21 | NC(=O)c1nn(-c2ccc(CNCCOCCOCCCc3cccc4c3CN(C3CCC(=O)NC3=O)C4=O)cc2)cc1NC(=O)c1coc(-c2ccnc(NCC3CC3)c2)n1 (stereo not drawn) [I-324] | B (>20-50% degradation) | A (>50% degradation) | B (>20-50% degradation)
22 | NC(=O)c1nn(-c2ccc(CNCCOCCOCCOCCCc3cccc4c3CN(C3CCC(=O)NC3=O)C4=O)cc2)cc1NC(=O)c1coc(-c2ccnc(NCC3CC3)c2)n1 (stereo not drawn) [I-325] | B (>20-50% degradation) | A (>50% degradation) | A (>50% degradation)
